Assay results published in patent publication US8822211B2, “Device and method for concentrating and detecting pathogenic microbes from blood products and/or their derivatives” (Becton Dickinson Infusion Therapy Systems Inc., priority 2001, dated 2014).
Where “and” joins values, the source holds several entries; their conditions need not be identical. Equal entries are not always repeated.

Assays:
Format in all cases: cell-based
[1] = tested on: Staphylococcus epidermidis; assay: Platelet aggregation with ADP in the presence of pathogenic microbes, bacteria counting; settings: 10 μM ADP
Experimental: Platelet aggregation in the presence of ADP comprised the following steps:
a cryobead of Staphylococcus epidermidis was introduced into a tube of 9 ml of tryptone soy broth and incubated at 37° C. for 18-24 hours;
onto 400 μl of platelet concentrate there was added 50 μl of the suspension of Staph. epidermidis and 50 μl of ADP;
(§1) the tubes were agitated manually for 5 minutes at ambient temperature;
500 μl of PBS buffer was added;
filtration was performed on a filter with a porosity of 5 μm;
dilutions were made in series of 1/20 and 1/10 and 1/10;
100 μl of the sample was filtered on a CB04 membrane;
labeling with an esterase was performed; and
The pathogenic microbes were seeded at a high concentration to augment a possible trapping effect. ADP was added to the platelets and the bacteria at a concentration of […].

[2] = tested on: platelets (platelet concentrate PC 6); assay: Platelet aggregation with thrombin, counting of residual platelets after 11 μm filtration; settings: 10 IU thrombin per test, PC 6, 5 minutes, 11 μm filter
Experimental: Thrombin is a strong agonist of platelet aggregation. Thrombin solutions (reference T8885 Sigma) were prepared at a concentration of 100 IU/ml when used at the rate of 10 IU/test and in diluted solution form (100 μl of thrombin mother solution with the addition of 900 μl of PBS buffer) when used at the rate of 1 IU/test.
Platelet aggregation by the intermediary of thrombin comprised:
placing 160 μl of platelet concentrate in a tube to which was added 20 μl of PBS buffer and 20 μl of thrombin;
as §1
800 μl of PBS buffer was added to the tubes;
the content of the tubes was filtered on a filter with a porosity of 11 μm;
dilutions were created in series 1/20 to 1/10 from the filtrates;
[…] of each dilution of the filtrate on a CB04 membrane were filtered;
an esterase labeling was performed; and
the platelets possibly retained on the membrane were counted.

E. coli = assay: Platelet aggregation with thrombin in the presence of pathogenic microbes, bacteria counting; settings: for Counting results (E. coli): PC 6, 11 μm filter
Experimental: The experimental studies performed to evaluate the aggregation of pathogenic microbes in the presence of thrombin comprised the following steps:
a cryobead of E. coli was introduced into a tube of 9 ml of tryptone soy broth and incubated at 37° C. for 18-24 hours;
160 μl of platelet concentrate was added to 20 μl of the E. coli suspension and 20 μl of thrombin;
the tube was agitated manually for 5 minutes at ambient temperature;
800 μl of PBS buffer was added;
filtration was performed through a filter of 11 μm porosity;
dilutions in series were performed: 1/20 and 1/10 and 1/10;
filtration was performed on 100 μl of sample on a CB04 membrane;
labeling with esterase was performed; and […]

Molecule	bacteria recovered after the aggregation step ([1]; PC 6)	Concentration bacteria/ml ([1]; PC 6, 5 μm filter)	Results (bacteria count) ([1]; PC 6, 5 μm filter)	platelet count after aggregation and filtration [2]	Counting results (E. coli) (E. coli; 1 IU thrombin)	Counting results (E. coli) (E. coli; 10 IU thrombin)	clot formation after addition (E. coli; platelet concentrate with E. coli)
Nc1ncnc2c1ncn2[C@@H]1O[C@H](COP(=O)(O)OP(=O)(O)O)[C@@H](O)[C@H]1O [ADP]	74%	4.7E+07 bacteria/ml	492 and 441				
Thrombin				44 and 30	140 and 167	109 and 122	A clot appeared almost instantly
